How the values were obtained:
FGFR1(h) = FGFR1(h) (Homo sapiens, UniProt P11362); experiment: kinase panel activity, FGFR1(h); assay type: biochemical; settings: compound at 20 μM; vs reference with no compound
MSK1(h) = MSK1(h) (Homo sapiens, UniProt O75582); experiment: kinase panel activity, MSK1(h); assay type: biochemical; settings: compound at 20 μM; vs reference with no compound
Flt1(h) = Flt1(h) (Homo sapiens, UniProt P17948); experiment: kinase panel activity, Flt1(h); assay type: biochemical; settings: compound at 20 μM; vs reference with no compound
MAPK1(h) = MAPK1(h) (Homo sapiens, UniProt P27361); experiment: kinase panel activity, MAPK1(h); assay type: biochemical; settings: compound at 20 μM; vs reference with no compound
CDK9/cyclin T1(h) = CDK9/cyclin T1(h) (Homo sapiens, UniProt P50750); experiment: kinase panel activity, CDK9/cyclin T1(h); assay type: biochemical; settings: compound at 20 μM; vs reference with no compound
TAK1(h) = TAK1(h) (Homo sapiens, UniProt O43318); experiment: kinase panel activity, TAK1(h); assay type: biochemical; settings: compound at 20 μM; vs reference with no compound
IKKα(h) = IKKα(h) (Homo sapiens, UniProt O15111); experiment: kinase panel activity, IKKα(h); assay type: biochemical; settings: compound at 20 μM; vs reference with no compound
PAK4(h) = PAK4(h) (Homo sapiens, UniProt O96013); experiment: kinase panel activity, PAK4(h); assay type: biochemical; settings: compound at 20 μM; vs reference with no compound
LKB1(h) = LKB1(h) (Homo sapiens, UniProt Q15831); experiment: kinase panel activity, LKB1(h); assay type: biochemical; settings: compound at 20 μM; vs reference with no compound
SIK(h) = SIK(h) (Homo sapiens, UniProt P57059); experiment: kinase panel activity, SIK(h); assay type: biochemical; settings: compound at 20 μM; vs reference with no compound
ALK4(h) = ALK4(h) (Homo sapiens, UniProt P36896); experiment: kinase panel activity, ALK4(h); assay type: biochemical; settings: compound at 20 μM; vs reference with no compound
SAPK2a(h) = SAPK2a(h) (Homo sapiens, UniProt Q16539); experiment: kinase panel activity, SAPK2a(h); assay type: biochemical; settings: compound at 20 μM; vs reference with no compound
ZAP-70(h) = ZAP-70(h) (Homo sapiens, UniProt P43403); experiment: kinase panel activity, ZAP-70(h); assay type: biochemical; settings: compound at 20 μM; vs reference with no compound
ALK(h) = ALK(h) (Homo sapiens, UniProt Q9UM73); experiment: kinase panel activity, ALK(h); assay type: biochemical; settings: compound at 20 μM; vs reference with no compound
PIk3(h) = PIk3(h) (Homo sapiens, UniProt Q9H4B4); experiment: kinase panel activity, PIk3(h); assay type: biochemical; settings: compound at 20 μM; vs reference with no compound
MSK2(h) = MSK2(h) (Homo sapiens, UniProt O75676); experiment: kinase panel activity, MSK2(h); assay type: biochemical; settings: compound at 20 μM; vs reference with no compound
cSRC(h) = cSRC(h) (Homo sapiens, UniProt P12931); experiment: kinase panel activity, cSRC(h); assay type: biochemical; settings: compound at 20 μM; vs reference with no compound
PAK6(h) = PAK6(h) (Homo sapiens, UniProt Q9NQU5); experiment: kinase panel activity, PAK6(h); assay type: biochemical; settings: compound at 20 μM; vs reference with no compound
TBK1(h) = TBK1(h) (Homo sapiens, UniProt Q9UHD2); experiment: kinase panel activity, TBK1(h); assay type: biochemical; settings: compound at 20 μM; vs reference with no compound
JNK2α2(h) = JNK2α2(h) (Homo sapiens, UniProt P45984); experiment: kinase panel activity, JNK2α2(h); assay type: biochemical; settings: compound at 20 μM; vs reference with no compound
CDK7/cyclinH/MAT1(h) = CDK7/cyclinH/MAT1(h) (Homo sapiens, UniProt P50613); experiment: kinase panel activity, CDK7/cyclinH/MAT1(h); assay type: biochemical; settings: compound at 20 μM; vs reference with no compound
CHK1(h) = CHK1(h) (Homo sapiens, UniProt O14757); experiment: kinase panel activity, CHK1(h); assay type: biochemical; settings: compound at 20 μM; vs reference with no compound
PDGFRα(h) = PDGFRα(h) (Homo sapiens, UniProt P16234); experiment: kinase panel activity, PDGFRα(h); assay type: biochemical; settings: compound at 20 μM; vs reference with no compound
TrkB(h) = TrkB(h) (Homo sapiens, UniProt Q16620); experiment: kinase panel activity, TrkB(h); assay type: biochemical; settings: compound at 20 μM; vs reference with no compound
IRAK1(h) = IRAK1(h) (Homo sapiens, UniProt P51617); experiment: kinase panel activity, IRAK1(h); assay type: biochemical; settings: compound at 20 μM; vs reference with no compound
EphB2(h) = EphB2(h) (Homo sapiens, UniProt P29323); experiment: kinase panel activity, EphB2(h); assay type: biochemical; settings: compound at 20 μM; vs reference with no compound
CDK2/cyclinA(h) = CDK2/cyclinA(h) (Homo sapiens, UniProt P24941); experiment: kinase panel activity, CDK2/cyclinA(h); assay type: biochemical; settings: compound at 20 μM; vs reference with no compound
SAPK2b(h) = SAPK2b(h) (Homo sapiens, UniProt Q15759); experiment: kinase panel activity, SAPK2b(h); assay type: biochemical; settings: compound at 20 μM; vs reference with no compound
MEK1(h) = MEK1(h) (Homo sapiens, UniProt Q02750); experiment: kinase panel activity, MEK1(h); assay type: biochemical; settings: compound at 20 μM; vs reference with no compound
Tie2(h) = Tie2(h) (Homo sapiens, UniProt Q02763); experiment: kinase panel activity, Tie2(h); assay type: biochemical; settings: compound at 20 μM; vs reference with no compound
CDK5/p35(h) = CDK5/p35(h) (Homo sapiens, UniProt Q00535); experiment: kinase panel activity, CDK5/p35(h); assay type: biochemical; settings: compound at 20 μM; vs reference with no compound
GSK3α(h) = GSK3α(h) (Homo sapiens, UniProt P49840); experiment: kinase panel activity, GSK3α(h); assay type: biochemical; settings: compound at 20 μM; vs reference with no compound
Fgr(h) = Fgr(h) (Homo sapiens, UniProt P09769); experiment: kinase panel activity, Fgr(h); assay type: biochemical; settings: compound at 20 μM; vs reference with no compound
NEK6(h) = NEK6(h) (Homo sapiens, UniProt Q9HC98); experiment: kinase panel activity, NEK6(h); assay type: biochemical; settings: compound at 20 μM; vs reference with no compound
CSK(h) = CSK(h) (Homo sapiens, UniProt P41240); experiment: kinase panel activity, CSK(h); assay type: biochemical; settings: compound at 20 μM; vs reference with no compound
CDK1/cyclinB(h) = CDK1/cyclinB(h) (Homo sapiens, UniProt P06493); experiment: kinase panel activity, CDK1/cyclinB(h); assay type: biochemical; settings: compound at 20 μM; vs reference with no compound
PKBα(h) = PKBα(h) (Homo sapiens, UniProt P31749); experiment: kinase panel activity, PKBα(h); assay type: biochemical
IKKβ(h) = IKKβ(h) (Homo sapiens, UniProt O14920); experiment: kinase panel activity, IKKβ(h); assay type: biochemical; settings: compound at 20 μM; vs reference with no compound
Fms(h) = Fms(h) (Homo sapiens, UniProt P07333); experiment: kinase panel activity, Fms(h); assay type: biochemical; settings: compound at 20 μM; vs reference with no compound
AMPK(r) = experiment: kinase panel activity, AMPK(r); assay type: biochemical, rat; settings: compound at 20 μM; vs reference with no compound

Chain of TAK1(h) (O43318 1-303 limits assumed): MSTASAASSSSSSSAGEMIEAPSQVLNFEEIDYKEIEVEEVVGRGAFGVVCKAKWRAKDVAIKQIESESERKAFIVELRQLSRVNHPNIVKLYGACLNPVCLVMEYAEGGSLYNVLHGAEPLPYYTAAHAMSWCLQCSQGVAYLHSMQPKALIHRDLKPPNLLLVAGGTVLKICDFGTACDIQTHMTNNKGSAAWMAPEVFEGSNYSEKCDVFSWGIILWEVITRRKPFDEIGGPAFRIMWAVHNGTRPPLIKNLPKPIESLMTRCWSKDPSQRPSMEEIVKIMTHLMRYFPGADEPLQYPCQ
Chain of IRAK1(h) (P51617 whole entry): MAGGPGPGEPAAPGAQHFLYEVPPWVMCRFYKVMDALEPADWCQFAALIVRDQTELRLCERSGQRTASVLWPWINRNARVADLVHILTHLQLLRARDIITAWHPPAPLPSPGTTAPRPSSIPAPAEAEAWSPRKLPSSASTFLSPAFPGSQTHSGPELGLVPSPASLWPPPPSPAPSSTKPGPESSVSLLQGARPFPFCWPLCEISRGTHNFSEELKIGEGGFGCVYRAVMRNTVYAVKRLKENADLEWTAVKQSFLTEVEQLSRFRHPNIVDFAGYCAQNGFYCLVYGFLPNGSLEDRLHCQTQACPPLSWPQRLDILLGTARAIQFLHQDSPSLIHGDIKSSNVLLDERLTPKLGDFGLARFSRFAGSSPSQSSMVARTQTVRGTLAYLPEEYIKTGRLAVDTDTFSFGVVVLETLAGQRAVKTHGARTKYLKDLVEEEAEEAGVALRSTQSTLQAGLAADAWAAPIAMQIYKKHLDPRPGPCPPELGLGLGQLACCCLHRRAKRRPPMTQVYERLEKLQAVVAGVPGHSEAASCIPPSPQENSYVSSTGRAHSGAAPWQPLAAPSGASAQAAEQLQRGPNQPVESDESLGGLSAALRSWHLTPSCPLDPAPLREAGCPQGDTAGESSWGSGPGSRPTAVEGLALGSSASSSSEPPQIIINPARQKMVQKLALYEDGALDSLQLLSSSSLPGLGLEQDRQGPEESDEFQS
Chain of MSK1(h) (O75582 whole entry): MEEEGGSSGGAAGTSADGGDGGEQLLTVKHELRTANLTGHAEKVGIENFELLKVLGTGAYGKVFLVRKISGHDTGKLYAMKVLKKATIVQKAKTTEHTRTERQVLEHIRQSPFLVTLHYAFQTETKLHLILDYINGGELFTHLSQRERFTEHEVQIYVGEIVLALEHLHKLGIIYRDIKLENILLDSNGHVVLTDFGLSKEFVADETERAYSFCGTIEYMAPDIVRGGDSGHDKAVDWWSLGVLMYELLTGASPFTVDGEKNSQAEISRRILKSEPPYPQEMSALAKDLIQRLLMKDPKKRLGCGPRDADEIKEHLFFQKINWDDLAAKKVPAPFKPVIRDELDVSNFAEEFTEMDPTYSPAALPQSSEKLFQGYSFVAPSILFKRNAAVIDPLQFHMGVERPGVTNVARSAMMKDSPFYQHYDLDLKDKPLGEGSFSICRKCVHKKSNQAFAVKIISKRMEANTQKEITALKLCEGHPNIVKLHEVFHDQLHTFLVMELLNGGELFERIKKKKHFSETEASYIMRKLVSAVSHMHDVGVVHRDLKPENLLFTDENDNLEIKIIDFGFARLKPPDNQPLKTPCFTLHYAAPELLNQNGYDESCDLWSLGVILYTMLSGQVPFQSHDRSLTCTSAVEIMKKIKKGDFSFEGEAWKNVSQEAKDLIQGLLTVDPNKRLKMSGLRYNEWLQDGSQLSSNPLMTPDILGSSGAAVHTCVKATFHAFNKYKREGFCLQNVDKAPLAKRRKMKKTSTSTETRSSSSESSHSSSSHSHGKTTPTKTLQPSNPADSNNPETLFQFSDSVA
Chain of MSK2(h) (O75676 whole entry): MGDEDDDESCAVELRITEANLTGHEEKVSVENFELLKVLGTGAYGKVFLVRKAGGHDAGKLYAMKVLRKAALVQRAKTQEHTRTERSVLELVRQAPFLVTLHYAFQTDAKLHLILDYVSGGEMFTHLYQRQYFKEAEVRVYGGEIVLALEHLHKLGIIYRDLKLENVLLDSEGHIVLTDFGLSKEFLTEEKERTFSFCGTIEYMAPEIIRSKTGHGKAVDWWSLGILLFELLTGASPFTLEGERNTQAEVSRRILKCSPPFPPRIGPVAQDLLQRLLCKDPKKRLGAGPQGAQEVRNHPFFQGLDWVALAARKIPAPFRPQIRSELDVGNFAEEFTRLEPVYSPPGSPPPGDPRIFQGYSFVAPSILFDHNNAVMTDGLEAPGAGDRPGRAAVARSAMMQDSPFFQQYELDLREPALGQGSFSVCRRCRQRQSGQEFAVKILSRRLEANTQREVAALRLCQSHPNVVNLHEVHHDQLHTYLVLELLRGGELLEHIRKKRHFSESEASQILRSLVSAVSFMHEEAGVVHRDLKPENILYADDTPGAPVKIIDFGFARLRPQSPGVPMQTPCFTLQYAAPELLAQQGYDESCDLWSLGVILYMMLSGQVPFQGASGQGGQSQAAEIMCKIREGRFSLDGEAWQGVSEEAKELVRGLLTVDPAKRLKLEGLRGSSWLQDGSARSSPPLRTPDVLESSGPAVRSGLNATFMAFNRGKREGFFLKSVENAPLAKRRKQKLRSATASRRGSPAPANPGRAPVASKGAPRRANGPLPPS
Chain of GSK3α(h) (P49840 whole entry): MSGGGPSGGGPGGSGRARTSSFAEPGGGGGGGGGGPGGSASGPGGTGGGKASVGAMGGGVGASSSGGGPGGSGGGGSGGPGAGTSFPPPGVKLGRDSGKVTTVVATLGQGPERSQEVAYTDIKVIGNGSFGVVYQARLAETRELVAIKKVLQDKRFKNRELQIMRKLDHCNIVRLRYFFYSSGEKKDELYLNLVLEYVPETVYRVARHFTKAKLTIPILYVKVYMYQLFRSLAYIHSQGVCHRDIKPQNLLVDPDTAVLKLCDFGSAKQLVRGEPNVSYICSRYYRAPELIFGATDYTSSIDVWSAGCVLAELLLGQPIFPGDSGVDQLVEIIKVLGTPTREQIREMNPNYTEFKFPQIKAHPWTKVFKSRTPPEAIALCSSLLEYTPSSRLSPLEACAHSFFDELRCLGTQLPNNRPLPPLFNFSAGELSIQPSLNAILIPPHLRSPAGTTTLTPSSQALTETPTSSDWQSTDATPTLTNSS
Chain of cSRC(h) (P12931 whole entry): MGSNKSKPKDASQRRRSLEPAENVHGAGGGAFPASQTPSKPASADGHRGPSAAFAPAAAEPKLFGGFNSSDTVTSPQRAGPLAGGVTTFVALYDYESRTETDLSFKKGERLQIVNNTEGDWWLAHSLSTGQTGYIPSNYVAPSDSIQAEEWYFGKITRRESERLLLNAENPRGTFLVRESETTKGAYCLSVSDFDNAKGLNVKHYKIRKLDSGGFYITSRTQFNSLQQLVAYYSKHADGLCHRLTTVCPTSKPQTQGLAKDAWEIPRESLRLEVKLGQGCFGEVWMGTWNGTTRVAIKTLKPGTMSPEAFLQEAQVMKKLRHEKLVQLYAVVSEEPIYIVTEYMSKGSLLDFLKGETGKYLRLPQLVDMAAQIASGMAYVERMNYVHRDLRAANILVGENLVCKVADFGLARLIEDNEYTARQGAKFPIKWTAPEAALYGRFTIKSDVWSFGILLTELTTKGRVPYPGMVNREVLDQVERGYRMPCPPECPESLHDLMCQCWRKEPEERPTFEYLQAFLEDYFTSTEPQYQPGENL
Chain of JNK2α2(h) (P45984 whole entry): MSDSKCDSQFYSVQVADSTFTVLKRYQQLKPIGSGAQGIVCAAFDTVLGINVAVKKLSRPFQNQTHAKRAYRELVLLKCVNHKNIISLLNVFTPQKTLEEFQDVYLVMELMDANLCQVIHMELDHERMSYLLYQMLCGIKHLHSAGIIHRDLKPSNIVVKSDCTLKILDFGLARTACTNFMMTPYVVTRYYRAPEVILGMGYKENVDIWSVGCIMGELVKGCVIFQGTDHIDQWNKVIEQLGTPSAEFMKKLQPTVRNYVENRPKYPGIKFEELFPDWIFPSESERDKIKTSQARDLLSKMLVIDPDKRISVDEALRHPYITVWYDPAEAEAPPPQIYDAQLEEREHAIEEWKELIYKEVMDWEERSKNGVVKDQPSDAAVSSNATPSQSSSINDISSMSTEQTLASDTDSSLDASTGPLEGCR
Chain of FGFR1(h) (P11362 22-822): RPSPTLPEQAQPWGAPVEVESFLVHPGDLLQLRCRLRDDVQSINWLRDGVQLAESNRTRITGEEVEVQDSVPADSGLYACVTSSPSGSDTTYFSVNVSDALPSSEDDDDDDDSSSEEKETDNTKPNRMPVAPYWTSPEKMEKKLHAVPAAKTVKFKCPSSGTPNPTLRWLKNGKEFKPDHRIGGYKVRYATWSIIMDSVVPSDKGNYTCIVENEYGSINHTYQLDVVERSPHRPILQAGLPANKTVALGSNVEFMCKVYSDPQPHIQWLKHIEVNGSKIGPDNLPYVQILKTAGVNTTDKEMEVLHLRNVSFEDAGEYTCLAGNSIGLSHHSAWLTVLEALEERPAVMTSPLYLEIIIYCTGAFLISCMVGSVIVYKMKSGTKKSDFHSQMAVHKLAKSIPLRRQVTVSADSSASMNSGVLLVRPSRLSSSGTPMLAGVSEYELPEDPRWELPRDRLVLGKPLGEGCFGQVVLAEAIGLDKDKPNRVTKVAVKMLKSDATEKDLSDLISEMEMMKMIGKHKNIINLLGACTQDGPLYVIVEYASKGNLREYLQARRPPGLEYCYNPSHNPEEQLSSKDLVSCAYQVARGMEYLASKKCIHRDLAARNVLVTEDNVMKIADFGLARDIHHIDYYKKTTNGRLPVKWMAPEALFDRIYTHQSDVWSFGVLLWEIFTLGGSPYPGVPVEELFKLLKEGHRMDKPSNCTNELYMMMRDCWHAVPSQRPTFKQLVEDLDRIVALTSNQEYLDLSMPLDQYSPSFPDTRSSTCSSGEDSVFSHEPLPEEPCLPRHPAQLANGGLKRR

Row | Compound | percent activity of FGFR1(h) (FGFR1(h)) [%] | percent activity of MSK1(h) (MSK1(h)) [%] | percent activity of Flt1(h) (Flt1(h)) [%] | percent activity of MAPK1(h) (MAPK1(h)) [%] | percent activity of CDK9/cyclin T1(h) (CDK9/cyclin T1(h)) [%] | percent activity of TAK1(h) (TAK1(h)) [%] | percent activity of IKKα(h) (IKKα(h)) [%] | percent activity of PAK4(h) (PAK4(h)) [%] | percent activity of LKB1(h) (LKB1(h)) [%] | percent activity of SIK(h) (SIK(h)) [%] | percent activity of ALK4(h) (ALK4(h)) [%] | percent activity of SAPK2a(h) (SAPK2a(h)) [%] | percent activity of ZAP-70(h) (ZAP-70(h)) [%] | percent activity of ALK(h) (ALK(h)) [%] | percent activity of PIk3(h) (PIk3(h)) [%] | percent activity of MSK2(h) (MSK2(h)) [%] | percent activity of cSRC(h) (cSRC(h)) [%] | percent activity of PAK6(h) (PAK6(h)) [%] | percent activity of TBK1(h) (TBK1(h)) [%] | percent activity of JNK2α2(h) (JNK2α2(h)) [%] | other results
1 | O=C(O)[C@H]1O[C@@H](Oc2ccc(/C=C/c3cc(O)cc(O)c3)cc2)[C@H](O)[C@@H](O)[C@@H]1O [Res 4′-Gluc, resveratrol-4-glucuronide] | 45 | 110 | 76 | 106 | 105 | 113 | 113 | 107 | 95 | 74 | 104 | 107 | 125 | 87 | 86 | 94 | 54 | 128 | 80 | 123 | percent activity of CDK7/cyclinH/MAT1(h) (CDK7/cyclinH/MAT1(h)): 110%; percent activity of CHK1(h) (CHK1(h)): 117%; percent activity of PDGFRα(h) (PDGFRα(h)): 114%; percent activity of TrkB(h) (TrkB(h)): 100%; percent activity of IRAK1(h) (IRAK1(h)): 100%; percent activity of EphB2(h) (EphB2(h)): 109%; percent activity of CDK2/cyclinA(h) (CDK2/cyclinA(h)): 98%; percent activity of SAPK2b(h) (SAPK2b(h)): 111%; percent activity of MEK1(h) (MEK1(h)): 120%; percent activity of Tie2(h) (Tie2(h)): 76%; percent activity of CDK5/p35(h) (CDK5/p35(h)): 104%; percent activity of GSK3α(h) (GSK3α(h)): 57%; percent activity of Fgr(h) (Fgr(h)): 67%; percent activity of NEK6(h) (NEK6(h)): 107%; percent activity of CSK(h) (CSK(h)): 100%; percent activity of CDK1/cyclinB(h) (CDK1/cyclinB(h)): 104%; percent activity of PKBα(h) (PKBα(h); compound at 20 μM, vs reference with no compound): 96%; percent activity of IKKβ(h) (IKKβ(h)): 98%; percent activity of Fms(h) (Fms(h)): 94%; percent activity of AMPK(r) (AMPK(r)): 43%
2 | Oc1ccc(C=Cc2cc(O)cc(O)c2)cc1 [resveratrol, 3,5,4′-trihydroxystilbene] | 58 | 58 | 52 | 94 | 70 | 105 | 40 | 103 | 102 | 76 | 110 | 100 | 141 | 39 | 95 | 60 | 61 | 103 | 62 | 110 | percent activity of CDK7/cyclinH/MAT1(h) (CDK7/cyclinH/MAT1(h)): 95%; percent activity of CHK1(h) (CHK1(h)): 95%; percent activity of PDGFRα(h) (PDGFRα(h)): 114%; percent activity of TrkB(h) (TrkB(h)): 98%; percent activity of IRAK1(h) (IRAK1(h)): 97%; percent activity of EphB2(h) (EphB2(h)): 113%; percent activity of CDK2/cyclinA(h) (CDK2/cyclinA(h)): 80%; percent activity of SAPK2b(h) (SAPK2b(h)): 100%; percent activity of MEK1(h) (MEK1(h)): 110%; percent activity of Tie2(h) (Tie2(h)): 94%; percent activity of CDK5/p35(h) (CDK5/p35(h)): 77%; percent activity of GSK3α(h) (GSK3α(h)): 79%; percent activity of Fgr(h) (Fgr(h)): 78%; percent activity of NEK6(h) (NEK6(h)): 140%; percent activity of CSK(h) (CSK(h)): 94%; percent activity of CDK1/cyclinB(h) (CDK1/cyclinB(h)): 67%; activity at 20 µM (PKBα(h); read-out: percent activity of PKBα(h)): 94%; percent activity of IKKβ(h) (IKKβ(h)): 116%; percent activity of Fms(h) (Fms(h)): 61%; percent activity of AMPK(r) (AMPK(r)): 39%
